Results: the supplement of paper PMC10307832

Experiments:
Assay in all cases: relative viability (nuclei count vs DMSO), 5 days (fraction); higher = more cells survive
[1] = system: NCI-H1734
Outline: (§1)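 Lung cancer cell lines were pin-tool dosed in 1536-well plates on the day after seeding, with either a lone drug or a fixed anchor-drug dose plus five library-drug doses (not always all listed) in √10 steps. Nuclei were counted on 4× images after 5 days. Relative viability is the ratio of treated-well to vehicle-well nuclei counts, with each value a median of duplicate plates.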

[2] = system: SK-LU-1
Outline: as §1

[3] = system: LC-2-ad
Outline: as §1

[4] = system: HCC-15
Outline: as §1

[5] = system: NCI-H2342
Outline: as §1

[6] = system: PC-3 [JPC-3]
Outline: as §1

[7] = system: HCC-78
Outline: as §1

[8] = system: SW 1573
Outline: as §1

[9] = system: LXF-289
Outline: as §1

[10] = system: NCI-H1755
Outline: as §1

[11] = system: NCI-H1975
Outline: as §1

[12] = system: NCI-H2126
Outline: as §1

[13] = system: NCI-H1792
Outline: as §1

[14] = system: NCI-H647
Outline: as §1

[15] = system: RERF-LC-KJ
Outline: as §1

[16] = system: NCI-H358
Outline: as §1

[17] = system: A-427
Outline: as §1

[18] = system: NCI-H1915
Outline: as §1

[19] = system: NCI-H2347
Outline: as §1

[20] = system: NCI-H522
Outline: as §1

In the case of `CC(=O)O[C@@]12CO[C@@H]1C[C@H](O)[C@@]1(C)C(=O)[C@H](O)C3=C(C)[C@@H](OC(=O)[C@H](O)[C@@H](NC(=O)OC(C)(C)C)c4ccccc4)C[C@@](O)([C@@H](OC(=O)c4ccccc4)[C@H]21)C3(C)C` [Docetaxel] + Nc1ncn([C@H]2C[C@H](O)[C@@H](CO)O2)c(=O)n1 [Decitabine] (partner 2 µM), the relative viability ([1]; first compound 0.0002 µM) is reported as 0.492, the relative viability ([1]; first compound 0.000632 µM) is reported as 0.431 and the relative viability ([1]; first compound 0.002 µM) is reported as 0.359. It also gave a relative viability ([1]; first compound 0.006325 µM) of 0.307, a relative viability ([1]; first compound 0.02 µM) of 0.218 and a relative viability ([2]; first compound 0.0002 µM) of 0.613. For the same compound, the relative viability ([2]; first compound 0.000632 µM) was 0.645, the relative viability ([2]; first compound 0.002 µM) was 0.524 and the relative viability ([2]; first compound 0.006325 µM) was 0.378. The relative viability ([2]; first compound 0.02 µM) was 0.269, the relative viability ([3]; first compound 0.0002 µM) was 0.769 and the relative viability ([3]; first compound 0.000632 µM) was 0.714. The relative viability ([3]; first compound 0.002 µM) was 0.465, the relative viability ([3]; first compound 0.006325 µM) was 0.323 and the relative viability ([3]; first compound 0.02 µM) was 0.272. The relative viability ([4]; first compound 0.0002 µM) was 0.58, the relative viability ([4]; first compound 0.000632 µM) was 0.338 and the relative viability ([4]; first compound 0.002 µM) was 0.217. It also gave a relative viability ([4]; first compound 0.02 µM) of 0.191, a relative viability ([5]; first compound 0.0002 µM) of 0.72 and a relative viability ([5]; first compound 0.000632 µM) of 0.72. For the same compound, the relative viability ([5]; first compound 0.002 µM) was 0.583, the relative viability ([5]; first compound 0.006325 µM) was 0.519 and the relative viability ([5]; first compound 0.02 µM) was 0.489. It also gave a relative viability ([6]; first compound 0.0002 µM) of 0.816, a relative viability ([6]; first compound 0.000632 µM) of 0.849 and a relative viability ([6]; first compound 0.002 µM) of 0.666. For the same compound, the relative viability ([6]; first compound 0.006325 µM) was 0.5, the relative viability ([6]; first compound 0.02 µM) was 0.294 and the relative viability ([7]; first compound 0.0002 µM) was 0.627. The relative viability ([7]; first compound 0.000632 µM) was 0.654, the relative viability ([7]; first compound 0.002 µM) was 0.458 and the relative viability ([7]; first compound 0.006325 µM) was 0.511. For the same compound, the relative viability ([7]; first compound 0.02 µM) was 0.353, the relative viability ([8]; first compound 0.0002 µM) was 0.387 and the relative viability ([8]; first compound 0.000632 µM) was 0.296. For the same compound, the relative viability ([8]; first compound 0.002 µM) was 0.172, the relative viability ([8]; first compound 0.006325 µM) was 0.165 and the relative viability ([8]; first compound 0.02 µM) was 0.121. The relative viability ([9]; first compound 0.0002 µM) was 0.383, the relative viability ([9]; first compound 0.000632 µM) was 0.382 and the relative viability ([9]; first compound 0.002 µM) was 0.25. For the same compound, the relative viability ([9]; first compound 0.006325 µM) was 0.14, the relative viability ([9]; first compound 0.02 µM) was 0.118 and the relative viability ([10]; first compound 0.0002 µM) was 0.772. For the same compound, the relative viability ([10]; first compound 0.000632 µM) was 0.788, the relative viability ([10]; first compound 0.002 µM) was 0.604 and the relative viability ([10]; first compound 0.006325 µM) was 0.463. For the same compound, the relative viability ([10]; first compound 0.02 µM) was 0.507, the relative viability ([11]; first compound 0.0002 µM) was 0.37 and the relative viability ([11]; first compound 0.000632 µM) was 0.389. It also gave a relative viability ([11]; first compound 0.002 µM) of 0.223, a relative viability ([11]; first compound 0.006325 µM) of 0.177 and a relative viability ([11]; first compound 0.02 µM) of 0.122. For the same compound, the relative viability ([12]; first compound 0.0002 µM) was 0.622, the relative viability ([12]; first compound 0.000632 µM) was 0.548 and the relative viability ([12]; first compound 0.002 µM) was 0.463. The relative viability ([12]; first compound 0.006325 µM) was 0.387, the relative viability ([13]; first compound 0.0002 µM) was 0.445 and the relative viability ([13]; first compound 0.000632 µM) was 0.394. For the same compound, the relative viability ([13]; first compound 0.002 µM) was 0.376, the relative viability ([13]; first compound 0.006325 µM) was 0.172 and the relative viability ([13]; first compound 0.02 µM) was 0.0755. The relative viability ([14]; first compound 0.000632 µM) was 0.468, the relative viability ([14]; first compound 0.002 µM) was 0.171 and the relative viability ([14]; first compound 0.006325 µM) was 0.153. It also gave a relative viability ([14]; first compound 0.02 µM) of 0.109, a relative viability ([15]; first compound 0.0002 µM) of 0.716 and a relative viability ([15]; first compound 0.000632 µM) of 0.542. It also gave a relative viability ([15]; first compound 0.002 µM) of 0.232, a relative viability ([15]; first compound 0.02 µM) of 0.146 and a relative viability ([16]; first compound 0.0002 µM) of 0.183. The relative viability ([16]; first compound 0.000632 µM) was 0.189, the relative viability ([16]; first compound 0.002 µM) was 0.18 and the relative viability ([16]; first compound 0.006325 µM) was 0.135. It also gave a relative viability ([16]; first compound 0.02 µM) of 0.116, a relative viability ([17]; first compound 0.0002 µM) of 0.568 and a relative viability ([17]; first compound 0.000632 µM) of 0.569. For the same compound, the relative viability ([17]; first compound 0.002 µM) was 0.443, the relative viability ([17]; first compound 0.006325 µM) was 0.3 and the relative viability ([17]; first compound 0.02 µM) was 0.222. The relative viability ([18]; first compound 0.0002 µM) was 0.245, the relative viability ([18]; first compound 0.000632 µM) was 0.25 and the relative viability ([18]; first compound 0.002 µM) was 0.231. It also gave a relative viability ([18]; first compound 0.006325 µM) of 0.184, a relative viability ([18]; first compound 0.02 µM) of 0.124 and a relative viability ([19]; first compound 0.0002 µM) of 0.637. The relative viability ([19]; first compound 0.000632 µM) was 0.633, the relative viability ([19]; first compound 0.002 µM) was 0.644 and the relative viability ([19]; first compound 0.006325 µM) was 0.51. The relative viability ([19]; first compound 0.02 µM) was 0.473, the relative viability ([20]; first compound 0.0002 µM) was 0.641 and the relative viability ([20]; first compound 0.000632 µM) was 0.571. It also gave a relative viability ([20]; first compound 0.002 µM) of 0.586, a relative viability ([20]; first compound 0.006325 µM) of 0.448 and a relative viability ([20]; first compound 0.02 µM) of 0.377.
